The nature of series [1]: PBS solubility (kinetic solubility from DMSO stocks). The settings on record: 22 °C, aqueous buffer, kinetic from dmso stock; 1x PBS pH 7.4, 1.0% DMSO, 24-hour incubation at ambient temperature. Type of series: physicochemical. The gist of the method: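 Kinetic solubility in 1× PBS pH 7.4 with 1.0% final DMSO, maximum theoretical concentration 100 μM from 10 mM stock. After 24 h at ambient temperature (20.8-24.0 °C) the samples were vacuum-filtered and filtrates quantified by nitrogen detection against a calibration curve. Values were background-corrected and reported in μM and μg/mL.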

Series [2] deals with HCT116 MTAP-deleted cell lines. In words: Cell viability assay (CellTiter-Glo, 7 days), HCT116 MTAP-deleted. Type of series: cell-based. The settings on record: for Selectivity: HCT116 WT CC50 versus HCT116 MTAP^del CC50; for plasma-adjusted CC50 (paCC50): paCC50 = CC50-HCT116-MTAP^del * (% free CCM/% free human plasma); for CC50: Homo sapiens, HCT116 MTAP-deleted. The gist of the method: (§1)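 Each PRMT5 inhibitor was tested as a dose response alongside tool compounds on the same plate. Incubation ran 7 days at 37 °C under 5% CO2, after which CellTiter-Glo luminescence was recorded and CC50 calculated.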

Series [3] is described as follows: MDR1/BCRP assay: permeability in cPgp-KO-MDCK-WT cells. Type of series: in vitro ADME. To be noted: dog, pH 7.4. The gist of the method:
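Compounds at 1 μM were dosed apically or basolaterally on 5-day confluent cPgp-KO-MDCK monolayers, HBSS/HEPES/glucose pH 7.4 donor and receiver with 1% BSA, duplicate wells. Receiver samples at 2 h were analysed by LC-MS/MS to give A→B and B→A Papp plus % recovery; TEER confirmed integrity.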

The nature of series [4]: Cell viability assay (CellTiter-Glo, 7 days), HCT116 WT. Format: cell-based. To be noted: human, HCT116 WT cells, 7 days of treatment, CTG. The gist of the method:
as §1
On the technique in general: ATP-based viability assays read luminescence as a measure of living cells.

Series [5] is described as follows: Pharmacokinetics in cassette in male Sprague-Dawley rats for Kp measurement. The settings on record: 1 mg/kg, intravenous. Type of series: in vivo. As for the experimental part:
E.1 Test Animal: Male Sprague-Dawley Rats (225-300 g) with Indwelling Bilateral Jugular Vain Cannula (JVC/JVC) or Single Jugular Vein Cannula (JVC)
E.2 Pharmaceutical Formulation and Administration
Test compound was dissolved in the vehicle of 10% DMSO, 10% ethanol, 40% polyethylene glycol 300, and 40% propylene glycol to get 1 mg/mL test compound solution. The compound was administered by intravenous administration at a dose of 1 mL/kg. Fasting was not required.
• Anticoagulant: K2EDTA • Volume: approximately 225 μL blood at each bleed • Jugula vein via syringe and needle or another method (non-terminal samples) or exsanguination (cardiac puncture) under isoflurane (or CO2 inhalation if isoflurane is unavailable) anesthesia (terminal time points). Blood samples were collected into K2EDTA tubes • Tissue collection and processing: following the terminal blood collection, the brain and CSF were collected from each animal.

[6] abbreviates: HCT-116, 168 h, 7 days of treatment, CTG, read-out: CC50-HCT116-MTAP^del.
[7] abbreviates: HCT-116, cell viability assay, class symbols, read-out: CC50.
Where [8] appears, read: brain Kp = [brain]/[plasma], rat, read-out: Rat brain Kp.
[9] abbreviates: brain Kpu,u = Kp * (plasma free/rat brain free), read-out: Rat brain Kpu,u.
[10] abbreviates: HCT-116, cell viability, class symbols, read-out: CC50.

Consider 8 molecules from patent US12448388B2, “PRMT5 inhibitors and uses thereof” (Gilead Sciences, Inc., priority 2023, dated 2025).

≈ marks a conversion by molar mass, not a printed value. Read-outs that look alike come from different tables or passages of the source. Some results are limits rather than exact numbers.

What is called solubility is the dissolved amount per volume that the medium holds. Low readings indicate little dissolved substance, high ones much dissolved substance. A word on the CC50: it is the concentration at which the toxic effect on the cells reaches its halfway point. The Papp A→B is how fast a substance crosses the layer from the apical side. High values mean fast passage, low ones slow passage.

In series [1], `Nc1nc2cnc(C(=O)N3CCC[C@@H]4Oc5cc(OC(F)(F)F)cc(F)c5[C@@H]43)cc2n2cncc12` (single isomer, unassigned) [Fg-55] gave a solubility at 24 h of 13.7 µM (≈ 6.69 µg/mL). Also, in series [2], the Selectivity is recorded as 89. The plasma-adjusted CC50 (paCC50) in series [2] (HCT-116, * Calculated using Low throughput hEQDS) is 0.19 µM. Moreover, the results for the CC50 in series [2] (setting [6]) and in series [2] (setting [7]) were 0.009 µM and less than 0.1 µM, respectively. Further, the apical-to-basolateral permeability (Papp A→B) at 2 h, 1 µM in series [3] turned out to be 95 nm/s. This molecule had a cytotoxic concentration (CC50) at 7 days in series [4] of 0.799 µM. Also, the Kp in series [5] (setting [8]) was 0.2; in series [5] (setting [9]), 0.05.

For the molecule `Nc1nc2cnc(C(=O)N3CCC[C@@H]4Oc5c(ccc(C(F)(F)F)c5F)[C@@H]43)cc2n2cncc12` [Ff-109, (4-aminoimidazo[1,5-a]pyrido[3,4-e]pyrazin-8-yl)((4aS,9bS)-6-fluoro-7-(trifluoromethyl)-3,4,4a,9b-tetrahydrobenzofuro[3,2-b]pyridin-1(2H)-yl)methanone], the solubility at 24 h in series [1] amounted to 2.3 µM (≈ 1.09 µg/mL). In addition, the Selectivity in series [2] was 92. This molecule returned a plasma-adjusted CC50 (paCC50) in series [2] (HCT-116) of 0.276 µM. Also, the CC50 is 0.015 µM in series [2] (setting [6]) and less than 0.1 µM in series [2] (setting [10]). In series [3], the Papp A→B at 2 h, 1 µM came to 122 nm/s. Also, in series [4], the 50% cytotoxic concentration (CC50) at 7 days is 1.38 µM. Moreover, the Kp in series [5] (setting [8]) came to 0.1; in series [5] (setting [9]) it was 0.02.

In series [1], `Nc1nc2cnc(C(=O)N3CCC[C@@H]4Oc5cc(C(F)(F)F)ccc5[C@@H]43)cc2n2cncc12` [Ff-110, (4-aminoimidazo[1,5-a]pyrido[3,4-e]pyrazin-8-yl)((4aS,9bS)-7-(trifluoromethyl)-3,4,4a,9b-tetrahydrobenzofuro[3,2-b]pyridin-1(2H)-yl)methanone] yielded a solubility at 24 h of 1.7 µM (≈ 0.773 µg/mL). The molecule further gave a Selectivity in series [2] of 86. In series [2] (HCT-116), this molecule showed a plasma-adjusted CC50 (paCC50) of 0.1 µM. Besides, the CC50 was 0.006 µM in series [2] (setting [6]) and less than 0.1 µM in series [2] (setting [10]). In series [3], this molecule registered an apical-to-basolateral permeability (Papp A→B) at 2 h, 1 µM of 121 nm/s. In series [4], this molecule showed a CC50 at 7 days of 0.516 µM. Also, the Kp in series [5] (setting [8]) was determined as 0.48; in series [5] (setting [9]), 0.06.

Consider `Nc1nc2ccc(C(=O)N3CCC[C@@H]4Oc5cc(C(F)(F)F)ccc5[C@@H]43)cc2n2cncc12` [Ff-111, (4-aminoimidazo[1,5-a]quinoxalin-8-yl)((4aS,9bS)-7-(trifluoromethyl)-3,4,4a,9b-tetrahydrobenzofuro[3,2-b]pyridin-1(2H)-yl)methanone], for which the concentration in solution in series [1] (solubility at 24 h) came to 1.1 µM (≈ 0.499 µg/mL). This molecule returned a Selectivity in series [2] of 110. The same molecule came in with a plasma-adjusted CC50 (paCC50) in series [2] (HCT-116) of 0.139 µM. The half-maximal cytotoxic concentration (CC50) in series [2] (setting [6]) was 0.01 µM; in series [2] (setting [10]) it was less than 0.1 µM. Also, the Papp A→B at 2 h, 1 µM in series [3] is 153 nm/s. Besides, half-maximal cytotoxicity in series [4] (CC50 at 7 days) was put at 1.1 µM. The Kp in series [5] (setting [8]) was 0.4; in series [5] (setting [9]), 0.06.

Consider `Cc1ncc2c(N)nc3cnc(C(=O)N4CCC[C@@H]5Oc6cc(OC(F)(F)F)ccc6[C@@H]54)cc3n12` [Ff-340, (4-amino-1-methylimidazo[1,5-a]pyrido[3,4-e]pyrazin-8-yl)((4aS,9bS)-7-(trifluoromethoxy)-3,4,4a,9b-tetrahydrobenzofuro[3,2-b]pyridin-1(2H)-yl)methanone], for which, in series [1], the solubility at 24 h is less than 1 µM. Further, the Selectivity in series [2] amounted to 107. In series [2] (HCT-116), the plasma-adjusted CC50 (paCC50) is 0.298 µM. Besides, the CC50 was 0.023 µM in series [2] (setting [6]) and less than 0.1 µM in series [2] (setting [10]). The Papp A→B at 2 h, 1 µM in series [3] stood at 163 nm/s. Besides, the CC50 at 7 days in series [4] came to 2.46 µM. The Kp in series [5] (setting [8]) was 0.2; in series [5] (setting [9]), 0.06.

In series [1], `Nc1nc2cnc(C(=O)N3CCC[C@@H]4Oc5cc(OC(F)(F)F)ccc5[C@@H]43)cc2n2cncc12` [Ff-341, (4-aminoimidazo[1,5-a]pyrido[3,4-e]pyrazin-8-yl)((4aS,9bS)-7-(trifluoromethoxy)-3,4,4a,9b-tetrahydrobenzofuro[3,2-b]pyridin-1(2H)-yl)methanone] gave a solubility at 24 h of 1.7 µM (≈ 0.8 µg/mL). Further, the Selectivity in series [2] is reported as 79. Further, the plasma-adjusted CC50 (paCC50) in series [2] (HCT-116) turned out to be 0.15 µM. For the same molecule, the 50% cytotoxic concentration (CC50) is 0.009 µM in series [2] (setting [6]) and less than 0.1 µM in series [2] (setting [10]). The Papp A→B at 2 h, 1 µM in series [3] turned out to be 103 nm/s. For the same molecule, the midpoint of cytotoxicity in series [4], the CC50 at 7 days, lay at 0.71 µM. Also, the results for the Kp in series [5] (setting [8]) and in series [5] (setting [9]) were 0.37 and 0.11, respectively.

For `Nc1nc2cnc(C(=O)N3CC[C@H]4C[C@@H]3c3ccc(C(F)(F)F)cc3O4)cc2n2cncc12` [Ff-367, (4-aminoimidazo[1,5-a]pyrido[3,4-e]pyrazin-8-yl)((2S,6R)-9-(trifluoromethyl)-3,4-dihydro-2H-2,6-methanobenzo[b][1,5]oxazocin-5(6H)-yl)methanone], in series [1], the solubility at 24 h is 34.9 µM (≈ 15.9 µg/mL). In series [2], this molecule gave a Selectivity of 77. In addition, in series [2] (HCT-116), the plasma-adjusted CC50 (paCC50) stood at 0.199 µM. In addition, the CC50 is 0.012 µM in series [2] (setting [6]) and less than 0.1 µM in series [2] (setting [10]). This molecule also registered an apparent permeability from apical to basolateral (Papp A→B) at 2 h, 1 µM in series [3] of 137 nm/s. Besides, it took 0.925 µM to reach half-maximal cytotoxicity in series [4] (CC50 at 7 days). The Kp in series [5] (setting [8]) was 0.32.

Take `Cc1ncn2c1c(N)nc1cnc(C(=O)N3CCC[C@@H]4Oc5cc(C(F)(F)F)ccc5[C@@H]43)cc12` [Ff-499, (4-amino-3-methylimidazo[1,5-a]pyrido[3,4-e]pyrazin-8-yl)((4aS,9bS)-7-(trifluoromethyl)-3,4,4a,9b-tetrahydrobenzofuro[3,2-b]pyridin-1(2H)-yl)methanone]: the solubility at 24 h in series [1] was less than 1 µM. The molecule also had a Selectivity in series [2] of 69. In series [2] (HCT-116), this molecule showed a plasma-adjusted CC50 (paCC50) of 0.168 µM. For the same molecule, the CC50 is 0.013 µM in series [2] (setting [6]) and less than 0.1 µM in series [2] (setting [7]). Further, in series [3], the Papp A→B at 2 h, 1 µM amounted to 178 nm/s. The midpoint of cytotoxicity in series [4], the CC50 at 7 days, lay at 0.897 µM. In addition, the figures for the Kp in series [5] (setting [8]) and in series [5] (setting [9]) were 0.67 and 0.15, respectively.
